# Source: US11999715B2, “ASK1 inhibiting agents” (BIOGEN MA INC., priority 2018, dated 2024)
# Experiments:
# [1] = target: T1, ASK1/MAP3K5 (Homo sapiens, UniProt Q99683); assay: ASK1/MAP3K5 kinase assay by Reaction Biology Corp. (headed ASK1 TR-FRET Assay); type: biochemical; conditions: 20 μM myelin basic protein, 10 μM ATP, class symbols
# T1 sequence (Q99683 1-1374): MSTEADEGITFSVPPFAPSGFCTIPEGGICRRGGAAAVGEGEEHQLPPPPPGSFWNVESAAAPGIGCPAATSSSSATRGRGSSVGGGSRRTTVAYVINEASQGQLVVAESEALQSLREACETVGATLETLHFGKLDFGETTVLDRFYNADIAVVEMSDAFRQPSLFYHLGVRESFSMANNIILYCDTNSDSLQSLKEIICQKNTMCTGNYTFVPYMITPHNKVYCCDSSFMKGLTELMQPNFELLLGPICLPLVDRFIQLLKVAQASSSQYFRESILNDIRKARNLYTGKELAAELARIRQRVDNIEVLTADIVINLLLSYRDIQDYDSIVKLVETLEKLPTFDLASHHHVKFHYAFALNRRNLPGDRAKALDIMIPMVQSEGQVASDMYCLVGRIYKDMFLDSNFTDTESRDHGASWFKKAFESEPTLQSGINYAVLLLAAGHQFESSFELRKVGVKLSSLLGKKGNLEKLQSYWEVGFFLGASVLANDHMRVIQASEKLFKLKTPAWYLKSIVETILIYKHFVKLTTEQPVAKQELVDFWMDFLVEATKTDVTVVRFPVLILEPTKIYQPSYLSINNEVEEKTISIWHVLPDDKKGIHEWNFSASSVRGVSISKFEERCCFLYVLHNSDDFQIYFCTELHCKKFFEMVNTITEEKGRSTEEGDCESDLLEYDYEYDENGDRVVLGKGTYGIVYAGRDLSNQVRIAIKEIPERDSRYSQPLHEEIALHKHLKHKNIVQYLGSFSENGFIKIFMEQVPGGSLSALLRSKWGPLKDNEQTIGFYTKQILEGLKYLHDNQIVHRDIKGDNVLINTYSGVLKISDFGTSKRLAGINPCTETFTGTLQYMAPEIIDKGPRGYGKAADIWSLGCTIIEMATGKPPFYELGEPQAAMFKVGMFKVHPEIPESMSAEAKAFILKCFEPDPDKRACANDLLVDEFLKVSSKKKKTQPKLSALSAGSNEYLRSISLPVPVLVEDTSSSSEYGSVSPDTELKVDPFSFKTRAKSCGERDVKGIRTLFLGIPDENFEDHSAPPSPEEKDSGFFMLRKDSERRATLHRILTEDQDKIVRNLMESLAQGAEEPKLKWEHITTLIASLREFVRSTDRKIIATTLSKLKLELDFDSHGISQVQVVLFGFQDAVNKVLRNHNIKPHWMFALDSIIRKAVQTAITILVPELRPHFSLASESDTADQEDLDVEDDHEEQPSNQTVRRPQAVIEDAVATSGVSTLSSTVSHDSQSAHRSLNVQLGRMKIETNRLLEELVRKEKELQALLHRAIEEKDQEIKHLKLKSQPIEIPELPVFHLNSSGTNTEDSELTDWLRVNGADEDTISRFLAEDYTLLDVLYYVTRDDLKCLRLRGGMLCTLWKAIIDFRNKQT
# Protocol: Example 111: Brief Description of ASK1 TR-FRET Assay The protein kinase inhibitory activity of the compounds described herein were tested using the ASK1/MAP3K5 assay by Reaction Biology Corp. (Malvern, PA). The assay procedure follows (and is also available on the Reaction Biology Corp. website). Base Reaction Buffer: 20 mM Hepes (pH 7.5), 10 mM MgCl2, 1 mM EGTA, 0.02% Brij35, 0.02 mg/mL BSA, 0.1 mM Na3VO4, 2 mM DTT, 1% DMSO; Substrate: 20 μM of myelin basic protein (MBP) and 10 μM ATP; Protein kinase: ASK1/MAP3K5. Reaction Procedure: • 1. Prepare indicated substrate in freshly prepared Base Reaction Buffer. • 2. Deliver any required cofactors to the substrate solution. • 3. Deliver indicated kinase into the substrate solution and gently mix. • 4. Deliver compounds in DMSO into the kinase reaction mixture by Acoustic; technology (Echo550; nanoliter range), incubate for 20 minutes at room temperature. • 5. Deliver ^33P-ATP (specific activity 10 μCi/μL) into the reaction mixture to initiate the reaction. • 6. Incubate kinase reaction for 2 hours at room temperature. • 7. Reactions are spotted onto P81 ion exchange paper. • 8. Detect kinase activity by filter-binding method.
# [2] = target: T2, ASK1 T838 auto phosphorylation (Homo sapiens, UniProt Q99683); assay: ASK1 (AUTO PHOS T838) assay, MSD format, in HEK-293T cells transfected with ASK1-V5; type: cell-based; conditions: ASK1 T838 auto phosphorylation in HEK-293T cells, 1 hr compound incubation; class symbols
# T2 sequence (Q99683 1-1374): T1 sequence (Q99683 1-1374)
# Protocol: Example 112: Brief Description of ASK1(AUTO PHOS T838) Assay ASK1 T838 auto phosphorylation was measured in HEK-293T cells using MSD assay format. HEK 293T cells were seeded in 15 cm plates at a density of 18 million cells and 20 mL DMEM with 10% FBS, Pen/Strep media. The plates were incubated at 37° C. overnight. Media on plates was changed to OPTI-MEM, serum free media and cells were transfected with 9 μg of ASK1-V5 tagged full length plasmid using Lipofectamine 2000 (Invitrogen) and the plates were incubated at 37° C. overnight. Cells were trypsinized, counted on Nexcellometer and plated into 96 well tissue culture plates with 100,000 cells/well and 200 μL media. Cells were incubated for 4 hr at 37° C. then ASK1 compounds were added using a HP 300e. Compounds were tested at 20 μM with 3 fold, 10 point dilution points then incubated for 1 hr at 37° C. A lysis buffer (Cell Signaling) was prepared with protease and phosphatase inhibitor and maintained at 4° C. until use. Media from cells was discarded and 120 μL of cold lysis buffer was added to the cells, the plate was shaken 4° C. for 1 hr. Lysate was mixed using Apricot liquid handler; aspirating up and down 16 times at high speed using 50 μL volume. […] Plates were then incubated on a plate shaker overnight at 4° C. Plates were washed 3× with MSD wash buffer and 50 μL of rabbit anti-pASK1 T838 antibody was added to the wells and incubated for 2 hr at room temperature on a plate shaker. Plates were then washed and 50 μL of goat anti-rabbit sulfa-tag (1:500 dilution) was added to wells, and incubated for 1 hr at room temperature on a plate shaker. […] Plates were immediately read on a MSD Instrument Reader where chemoluminescence signal was measured. Data was analyzed using Graph Pad or Genedata, the data was normalized and plotted, % activity versus log of compound concentration. The IC50 values were obtained from a 4 parameter fit. The compounds described herein were tested for in the above cell-based assay.
SMILES,IC50 [1] [µM],IC50 [2] [µM]
"CCn1cc(C(=O)Nc2cccc(-c3nncn3C(C)C(F)(F)F)n2)c(OC)n1 (centres unmarked) [Example 13, 1-Ethyl-3-methoxy-N-(6-(4-(1,1,1-trifluoropropan-2-yl)-4H-1,2,4-triazol-3-yl)pyridin-2-yl)-1H-pyrazole-4-carboxamide]",≤ 0.1,≤ 1
"CCOc1nn(C)cc1C(=O)Nc1cccc(-c2nncn2[C@@H](C)C(F)(F)F)n1 [Example 16, (S)-3-Ethoxy-1-methyl-N-(6-(4-(1,1,1-trifluoropropan-2-yl)-4H-1,2,4-triazol-3-yl)pyridin-2-yl)-1H-pyrazole-4-carboxamide]",≤ 0.1,≤ 1
"COc1nn(C)cc1C(=O)Nc1cccc(-c2nncn2C2CCC2)n1 [Example 17, N-(6-(4-Cyclobutyl-4H-1,2,4-triazol-3-yl)pyridin-2-yl)-3-methoxy-1-methyl-1H-pyrazole-4-carboxamide]",≤ 0.1,≤ 1
"COc1nn(C)cc1C(=O)Nc1cccc(-c2nncn2C(C)(C)C)n1 [Example 21, N-(6-(4-(tert-Butyl)-4H-1,2,4-triazol-3-yl)pyridin-2-yl)-3-methoxy-1-methyl-1H-pyrazole-4-carboxamide]",≤ 0.1,≤ 1
"C[C@H](n1cnnc1-c1cccc(NC(=O)c2cn(C)nc2C(F)F)n1)C(F)(F)F [Example 22, (S)-3-(Difluoromethyl)-1-methyl-N-(6-(4-(1,1,1-trifluoropropan-2-yl)-4H-1,2,4-triazol-3-yl)pyridin-2-yl)-1H-pyrazole-4-carboxamide]",1 to 10,1 to 10
"COc1nn(C)cc1C(=O)Nc1cccc(-c2nncn2[C@@H](C)C(C)C)n1 [Example 29, (S)-3-Methoxy-1-methyl-N-(6-(4-(3-methylbutan-2-yl)-4H-1,2,4-triazol-3-yl)pyridin-2-yl)-1H-pyrazole-4-carboxamide]",≤ 0.1,≤ 1
"COc1nn(C)cc1C(=O)Nc1cccc(-c2nncn2C2CCN(C(=O)OC(C)(C)C)CC2)n1 [Example 38, tert-Butyl 4-(3-(6-(3-methoxy-1-methyl-1H-pyrazole-4-carboxamido)pyridin-2-yl)-4H-1,2,4-triazol-4-yl)piperidine-1-carboxylate]",0.1 to 1,≤ 1
"COc1nn(C)cc1C(=O)Nc1cccc(-c2nncn2[C@@H]2CCCNC2)n1 [Example 39, (R)-3-Methoxy-1-methyl-N-(6-(4-(piperidin-3-yl)-4H-1,2,4-triazol-3-yl)pyridin-2-yl)-1H-pyrazole-4-carboxamide]",1 to 10,1 to 10
"COc1nn(CC(C)C)cc1C(=O)Nc1cccc(-c2nncn2C(C)C)n1 [Example 42, 1-Isobutyl-N-(6-(4-isopropyl-4H-1,2,4-triazol-3-yl)pyridin-2-yl)-3-methoxy-1H-pyrazole-4-carboxamide]",≤ 0.1,≤ 1

# Continued, values first:
IC50 [1] [µM],IC50 [2] [µM],SMILES
≤ 0.1,≤ 1,"COc1nn(C)cc1C(=O)Nc1cccc(-c2nncn2[C@@H](C)C(F)(F)F)n1 [Example 12, (S)-3-Methoxy-1-methyl-N-(6-(4-(1,1,1-trifluoropropan-2-yl)-4H-1,2,4-triazol-3-yl)pyridin-2-yl)-1H-pyrazole-4-carboxamide]"
0.1 to 1,≤ 1,COCc1nn(C)cc1C(=O)Nc1cccc(-c2nncn2[C@@H](C)C(F)(F)F)n1 [Example 14]
≤ 0.1,≤ 1,"CCn1cc(C(=O)Nc2cccc(-c3nncn3[C@@H](C)C(F)(F)F)n2)c(OC)n1 [Example 15, (S)-1-Ethyl-3-methoxy-N-(6-(4-(1,1,1-trifluoropropan-2-yl)-4H-1,2,4-triazol-3-yl)pyridin-2-yl)-1H-pyrazole-4-carboxamide]"
≤ 0.1,≤ 1,"COc1nn(C)cc1C(=O)Nc1cccc(-c2nncn2C2CC2)n1 [Example 18, N-(6-(4-Cyclopropyl-4H-1,2,4-triazol-3-yl)pyridin-2-yl)-3-methoxy-1-methyl-1H-pyrazole-4-carboxamide]"
≤ 0.1,≤ 1,"COc1nn(C)cc1C(=O)Nc1cccc(-c2nncn2C2CC(F)(F)C2)n1 [Example 19, N-(6-(4-(3,3-Difluorocyclobutyl)-4H-1,2,4-triazol-3-yl)pyridin-2-yl)-3-methoxy-1-methyl-1H-pyrazole-4-carboxamide]"
≤ 0.1,≤ 1,"COc1nn(C)cc1C(=O)Nc1cccc(-c2nncn2C2CCCC2)n1 [Example 20, N-(6-(4-Cyclopentyl-4H-1,2,4-triazol-3-yl)pyridin-2-yl)-3-methoxy-1-methyl-1H-pyrazole-4-carboxamide]"
≤ 0.1,≤ 1,"Cn1cc(C(=O)Nc2cccc(-c3nncn3C3(C(F)(F)F)CC3)n2)c(C(F)F)n1 [Example 24, 3-(Difluoromethyl)-1-methyl-N-(6-(4-(1-(trifluoromethyl)cyclopropyl)-4H-1,2,4-triazol-3-yl)pyridin-2-yl)-1H-pyrazole-4-carboxamide]"
≤ 0.1,≤ 1,"COc1nn(C)cc1C(=O)Nc1cccc(-c2nncn2C2(C(F)(F)F)CC2)n1 [Example 25, 3-Methoxy-1-methyl-N-(6-(4-(1-(trifluoromethyl)cyclopropyl)-4H-1,2,4-triazol-3-yl)pyridin-2-yl)-1H-pyrazole-4-carboxamide]"
≤ 0.1,≤ 1,"COc1nn(C)cc1C(=O)Nc1cccc(-c2nncn2C(C)C(F)F)n1 (centres unmarked) [Example 26, N-(6-(4-(1,1-Difluoropropan-2-yl)-4H-1,2,4-triazol-3-yl)pyridin-2-yl)-3-methoxy-1-methyl-1H-pyrazole-4-carboxamide]"
≤ 0.1,≤ 1,"COc1nn(C)cc1C(=O)Nc1cccc(-c2nncn2C2CCC2(F)F)n1 (centres unmarked) [Example 30, N-(6-(4-(2,2-Difluorocyclobutyl)-4H-1,2,4-triazol-3-yl)pyridin-2-yl)-3-methoxy-1-methyl-1H-pyrazole-4-carboxamide]"
